BigSolDB 2.1

Clc1ccc(COC(Cn2ccnc2)c2ccc(Cl)cc2Cl)cc1.O=[N+]([O-])O (centres undefined)
solubility (mole fraction)
Conditions	278.15 K	283.15 K	288.15 K	293.15 K	298.15 K	303.15 K	308.15 K	313.15 K	318.15 K
in 1,4-dioxane	–	–	0.000262	0.000317	0.000393	0.000482	0.000596	0.000729	0.000897
in ethanol	0.000526	0.000656	0.000832	0.00102	0.00125	0.00153	0.00189	0.00228	0.00275
in methanol	0.0015	0.00181	0.00221	0.00266	0.00328	0.00397	0.00479	0.00577	0.00687
in water	1.67e-05	2.05e-05	2.47e-05	2.93e-05	3.44e-05	3.98e-05	4.56e-05	5.16e-05	5.78e-05
